Measured values: patent US9149038B2, “4-amino-6-(heterocyclic)picolinates and 6-amino-2-(heterocyclic)pyrimidine-4-carboxylates and their use as herbicides” (Dow AgroSciences LLC, priority 2013, dated 2015)
Read-outs that look alike come from different tables or passages of the source.

Test system: Direct Seeded Rice and weed species
Assay: Postemergence herbicidal activity in direct seeded rice, visual rating after 20-22 days and probit GR20/GR50/GR80/GR90 (Table 14)
Assay type: in vivo
Settings: for pest or weed control at 17.5 g/ha / pest or weed control at 35 g/ha / pest or weed control at 70 g/ha: post-emergence, 504 h, postemergence; for pest or weed control at 17.5 g/ha: 17.5 g ai/ha; for pest or weed control at 35 g/ha: 35 g ai/ha; for pest or weed control at 70 g/ha: 70 g ai/ha
Description: Herbicidal evaluations were made visually on a scale of 0 to 100 where 0 represents no activity and 100 represents complete plant death. Seeds or nutlets of the desired test plant species were planted in a soil matrix prepared by mixing a loam soil (43 percent silt, 19 percent clay, and 38 percent sand, with a pH of about 8.1 and an organic matter content of about 1.5 percent) and river sand in an 80 to 20 ratio. The soil matrix was contained in plastic pots with a surface area of 139.7 cm^2. When required to ensure good germination and healthy plants, a fungicide treatment and/or other chemical or physical treatment was applied. The plants were grown for 10-17 d in a greenhouse with an approximate 14-h photoperiod which was maintained at about 29° C. during the day and 26° C. during the night. Nutrients and water were added on a regular basis and supplemental lighting was provided with overhead metal halide 1000-Watt lamps as necessary. The plants were employed for testing when they reached the second or third true leaf stage. A weighed amount, determined by the highest rate to be tested, of each test compound was placed in 25 mL glass vials and dissolved in a volume of 97:3 v/v acetone-DMSO to obtain 12× stock solutions. […] The concentrated stock solutions were added to the spray solutions so that the final acetone and DMSO concentrations were 16.2% and 0.5%, respectively. Spray solutions were diluted to the appropriate final concentrations with the addition of 10 mL of an aqueous mixture of 1.5% (v/v) Agri-dex crop oil concentrate. The final spray solutions contained 1.25% (v/v) Agri-dex crop oil concentrate. Compound requirements are based upon a 12 mL application volume at a rate of 187 L/ha. Formulated compounds were applied to the plant material with an overhead Mandel track sprayer equipped with […] nozzles calibrated to deliver 187 L/ha over an application area of 0.503 square meters (m^2) at a spray height of 18 inches (43 cm) above average plant canopy height. Control plants were sprayed in the same manner with the solvent blank. The treated plants and control plants were placed in a greenhouse as described above and watered by sub-irrigation to prevent wash-off of the test compounds. After 20-22 days, the condition of the test plants, compared with that of the untreated plants, was determined visually and scored on a scale of 0 to 100 percent where 0 corresponds to no injury and 100 corresponds to complete kill and are presented as indicated in Table 4. By applying the well-accepted probit analysis as described by J. Berkson in Journal of the American Statistical Society, 48, 565 (1953) and by D. Finney in “Probit Analysis” Cambridge University Press (1952), herbicidal injury of a specific compound at various rates can be used to calculate GR20, GR50, GR80 and GR90 values, which are defined as growth reduction factors that correspond to the effective dose of herbicide required to provide plant growth reduction (GR) of 20 percent, 50 percent, 80 percent and 90 percent, respectively. Probit analysis was applied to data collected from multiple dose rates of individual compounds utilizing the procedures explained in the following examples. The data for some of the dose rates and analysis of all of the dose rates are captured in the following tables.

[1] = BRAPP (broadleaf signalgrass, Brachiaria platyphylla), read-out: Visual Growth Reduction (%) 21 Days After Application BRAPP
[2] = CYPDI (small-flower flatsedge, Cyperus difformis), read-out: Visual Growth Reduction (%) 21 Days After Application CYPDI
[3] = CYPES (yellow nutsedge, Cyperus esculentus), read-out: Visual Growth Reduction (%) 21 Days After Application CYPES
[4] = CYPIR (rice flatsedge, Cyperus iria), read-out: Visual Growth Reduction (%) 21 Days After Application CYPIR
[5] = DIGSA (large crabgrass, Digitaria sanguinalis), read-out: Visual Growth Reduction (%) 21 Days After Application DIGSA
[6] = ECHCG (barnyardgrass, Echinochloa crus-galli), read-out: Visual Growth Reduction (%) 21 Days After Application ECHCG
[7] = ECHCO (junglerice, Echinochloa colonum), read-out: Visual Growth Reduction (%) 21 Days After Application ECHCO
[8] = LEFCH (Chinese sprangletop, Leptochloa chinensis), read-out: Visual Growth Reduction (%) 21 Days After Application LEFCH
[9] = ORYSJ (Oryza sativa, rice crop), read-out: Visual Growth Reduction (%) 21 Days After Application ORYSJ
[10] = ORYSK (Oryza sativa, rice crop), read-out: Visual Growth Reduction (%) 21 Days After Application ORYSK
[11] = SCPJU (Japanese bulrush, Schoenoplectus juncoides Roxb.), read-out: Visual Growth Reduction (%) 21 Days After Application SCPJU
[12] = SEBEX (hemp sesbania, Sesbania exaltata), given as number, read-out: Visual Growth Reduction (%) 21 Days After Application SEBEX

Structure (SMILES): Nc1c(F)c(-c2cc3c(cc2F)OC(F)(F)O3)nc(C(=O)O)c1Cl [Compound 13]
- GR50 BRAPP (BRAPP (Brachiaria platyphylla), probit analysis, dose for 50 percent growth reduction): 3 g ai/ha
- GR80 BRAPP (BRAPP (Brachiaria platyphylla), probit analysis, dose for 80 percent growth reduction): 5 g ai/ha
- GR90 BRAPP (BRAPP (Brachiaria platyphylla), probit analysis, dose for 90 percent growth reduction): 7 g ai/ha
- GR50 CYPDI (CYPDI (Cyperus difformis), probit analysis, dose for 50 percent growth reduction): 0.04 g ai/ha
- GR80 CYPDI (CYPDI (Cyperus difformis), probit analysis, dose for 80 percent growth reduction): 1 g ai/ha
- GR90 CYPDI (CYPDI (Cyperus difformis), probit analysis, dose for 90 percent growth reduction): 2 g ai/ha
- GR50 CYPES (CYPES (Cyperus esculentus), probit analysis, dose for 50 percent growth reduction): 0.04 g ai/ha
- GR50 CYPIR (CYPIR (Cyperus iria), probit analysis, dose for 50 percent growth reduction): 0.04 g ai/ha
- GR50 DIGSA (DIGSA (Digitaria sanguinalis), probit analysis, dose for 50 percent growth reduction): 0.05 g ai/ha
- GR80 DIGSA (DIGSA (Digitaria sanguinalis), probit analysis, dose for 80 percent growth reduction): 1 g ai/ha
- GR90 DIGSA (DIGSA (Digitaria sanguinalis), probit analysis, dose for 90 percent growth reduction): 6 g ai/ha
- GR50 ECHCG (ECHCG (Echinochloa crus-galli), probit analysis, dose for 50 percent growth reduction): 0.01 g ai/ha
- GR80 ECHCG (ECHCG (Echinochloa crus-galli), probit analysis, dose for 80 percent growth reduction): 1 g ai/ha
- GR90 ECHCG (ECHCG (Echinochloa crus-galli), probit analysis, dose for 90 percent growth reduction): 10 g ai/ha
- GR50 ECHCO (ECHCO (Echinochloa colonum), probit analysis, dose for 50 percent growth reduction): 1 g ai/ha
- GR80 ECHCO (ECHCO (Echinochloa colonum), probit analysis, dose for 80 percent growth reduction): 3 g ai/ha
- GR90 ECHCO (ECHCO (Echinochloa colonum), probit analysis, dose for 90 percent growth reduction): 6 g ai/ha
- GR50 LEFCH (LEFCH (Leptochloa chinensis), probit analysis, dose for 50 percent growth reduction): 14 g ai/ha
- GR80 LEFCH (LEFCH (Leptochloa chinensis), probit analysis, dose for 80 percent growth reduction): 25 g ai/ha
- GR90 LEFCH (LEFCH (Leptochloa chinensis), probit analysis, dose for 90 percent growth reduction): 33 g ai/ha
- GR20 ORYSJ (ORYSJ (Oryza sativa, rice crop), probit analysis, dose for 20 percent growth reduction): 6 g ai/ha
- GR20 ORYSK (ORYSK (Oryza sativa, rice crop), probit analysis, dose for 20 percent growth reduction): 15 g ai/ha
- GR50 SCPJU (SCPJU (Schoenoplectus juncoides Roxb.), probit analysis, dose for 50 percent growth reduction): 0.0001 g ai/ha
- GR80 SCPJU (SCPJU (Schoenoplectus juncoides Roxb.), probit analysis, dose for 80 percent growth reduction): 0.0001 g ai/ha
- GR90 SCPJU (SCPJU (Schoenoplectus juncoides Roxb.), probit analysis, dose for 90 percent growth reduction): 0.0001 g ai/ha
- GR50 SEBEX (SEBEX (Sesbania exaltata), probit analysis, dose for 50 percent growth reduction): 11 g ai/ha
- GR80 SEBEX (SEBEX (Sesbania exaltata), probit analysis, dose for 80 percent growth reduction): 16 g ai/ha
- GR90 SEBEX (SEBEX (Sesbania exaltata), probit analysis, dose for 90 percent growth reduction): 20 g ai/ha
- pest or weed control at 17.5 g/ha [1]: 95 to 100%
- pest or weed control at 35 g/ha [1]: 95 to 100%
- pest or weed control at 70 g/ha [1]: 95 to 100%
- pest or weed control at 17.5 g/ha [2]: 95 to 100%
- pest or weed control at 35 g/ha [2]: 95 to 100%
- pest or weed control at 70 g/ha [2]: 95 to 100%
- pest or weed control at 17.5 g/ha [3]: 95 to 100%
- pest or weed control at 35 g/ha [3]: 95 to 100%
- pest or weed control at 70 g/ha [3]: 95 to 100%
- pest or weed control at 17.5 g/ha [4]: 95 to 100%
- pest or weed control at 35 g/ha [4]: 95 to 100%
- pest or weed control at 70 g/ha [4]: 95 to 100%
- pest or weed control at 17.5 g/ha [5]: 95 to 100%
- pest or weed control at 35 g/ha [5]: 95 to 100%
- pest or weed control at 70 g/ha [5]: 95 to 100%
- pest or weed control at 17.5 g/ha [6]: 95 to 100%
- pest or weed control at 35 g/ha [6]: 85 to 94%
- pest or weed control at 70 g/ha [6]: 95 to 100%
- pest or weed control at 17.5 g/ha [7]: 95 to 100%
- pest or weed control at 35 g/ha [7]: 95 to 100%
- pest or weed control at 70 g/ha [7]: 95 to 100%
- pest or weed control at 17.5 g/ha [8]: 60 to 74%
- pest or weed control at 35 g/ha [8]: 95 to 100%
- pest or weed control at 70 g/ha [8]: 95 to 100%
- pest or weed control at 17.5 g/ha [9]: 45 to 59%
- pest or weed control at 35 g/ha [9]: 85 to 94%
- pest or weed control at 70 g/ha [9]: 95 to 100%
- pest or weed control at 17.5 g/ha [10]: 0 to 29%
- pest or weed control at 35 g/ha [10]: 45 to 59%
- pest or weed control at 70 g/ha [10]: 60 to 74%
- pest or weed control at 17.5 g/ha [11]: 95 to 100%
- pest or weed control at 35 g/ha [11]: 95 to 100%
- pest or weed control at 70 g/ha [11]: 95 to 100%
- pest or weed control at 17.5 g/ha [12]: 95%
- pest or weed control at 35 g/ha [12]: 100%
- pest or weed control at 70 g/ha [12]: 100%
